# Measurements published in patent US20230116760A1, “STRUCTURALLY-STABILIZED ONCOLYTIC PEPTIDES AND USES THEREOF” (Dana-Farber Cancer Institute, Inc., priority 2019, published 2023).
# Bridge positions count the residues as written; N and C are the ends. Square brackets hold non-standard residues; d marks the D form. Ends that are not written are not given here. Peptide text beside a SMILES is read from it. S5 = C=CCCC[C@](C)(N)C(=O)O; Nle = CCCC[C@H](N)C(=O)O
# Columns and labels:
# [1] = tested on: red blood cells (RBCs); type: cell-based, human
# Procedure: RBC hemolysis assay: To assess the hemolytic activity of a structurally-stabilized peptide described herein, a red blood cell (RBV) hemolysis assay can be used. Human blood samples are centrifuged to isolate RBCs, which are then washed and suspended in phosphate-buffered saline to yield a 1% (v/v) suspension. The suspension is added to serial dilutions of peptide stocks in water in clear round-bottom polypropylene 96-well plates and the plates incubated for 1 hour at 37° C. The plates are then centrifuged and the supernatant isolated to determine the amount of hemoglobin released using a spectrophotometer (570 nm). Percent hemolysis is calculated as: ([Treated Absorbance−Untreated Control Absorbance]×100)/(1% Triton X-100 Treated Absorbance−Untreated Control Absorbance).
# Stapled oncolytic peptide synthesis: Fmoc-based solid-phase peptide synthesis was used to synthesize stapled antimicrobial peptides in accordance with previously reported methods for generating all-hydrocarbon stapled peptides. To achieve the various staple lengths, α-methyl, α-alkenyl amino acids were installed at i, i+4 positions using two S-pentenyl alanine residues (S5). For the stapling reaction, Grubbs 1st generation ruthenium catalyst dissolved in dichloroethane was added to the resin-bound peptides. To ensure maximal conversion, three to five rounds of stapling were performed. The peptides were then cleaved off of the resin using trifluoroacetic acid, precipitated using a hexane:ether (1:1) mixture, air dried, and purified by LC-MS. All peptides were quantified by amino acid analysis. RBC hemolysis assay: Human blood samples were centrifuged to isolate red blood cells (RBCs), which were then washed and suspended in phosphate-buffered saline to yield a 1% (v/v) suspension. The suspension was added to serial dilutions of peptide stocks in water in clear round-bottom polypropylene 96-well plates and the plates incubated for 1 hour at 37° C. The plates were then centrifuged and the supernatant isolated to determine the amount of hemoglobin released using a spectrophotometer (570 nm). Percent hemolysis was calculated as: ([Treated Absorbance−Untreated Control Absorbance]×100)/(1% Triton X-100 Treated Absorbance−Untreated Control Absorbance).
# [2] = tested on: OCI-AML3 cells; assay: LDH release assay of OCI-AML3 cells; type: cell-based, human; conditions: 90 minutes; for cancer cell lysis by LDH release, compared with parent Mag(i+4)15: 10 and 25 μg/mL, FIG. 6, FIG. 7; for susceptibility of OCI-AML3 cells to iStOPs (LDH release): FIG. 19
# Procedure: (§1) LDH release assay: To assess the release of lactate dehydrogenase (LDH) upon treatment with a structurally-stabilized peptide described herein, an LDH release assay can be used. Cultured cells, including, e.g., cancer cells and HUVEC cells, are plated in 96-well format (2×10^4 cells per well; including overnight incubation for adherent cells) and then treated with serial dilutions of structurally-stabilized peptides in a final volume in a final volume of 100 μL and incubated at 37° C. for the indicated time period (e.g., 90 minutes). The plates are spun down at 1500 rpm for 5 minutes at 4° C., and 80 μL of cell culture media is transferred to a clear plate (Corning), incubated with 80 μL of LDH reagent (Roche) for 15 minutes while shaking, and absorbance is measured at 490 nm on a microplate reader (SpectraMax M5 Microplate Reader, Molecular Devices). LDH release assays, as tailored to specific cancer cell types (OCI-AML3 cells and primary human pediatric B-ALL cells), are exemplified below.
# (§2) LDH release assay of OCI-AML3 cells: OCI-AML3 cells are seeded in 96-well plates (2×10^4 cells per well) in RPMI medium containing 5% FBS and treated with structurally-stabilized peptides for 90 minutes. LDH release is quantified by incubating centrifuged (e.g., at 1500 rpm) cell culture medium 1:1 with LDH reagent (Roche), followed by absorbance measurement 490 nm on a microplate reader (Spectramax M5). Percent LDH release was normalized to 1% Triton.
# (§3) LDH release assay: Cultured cells, including cancer cells and HUVEC cells, were plated in 96-well format (2×10^4 cells per well; including overnight incubation for adherent cells) and then treated with serial dilutions of Mag(i+4) peptides in a final volume in a final volume of […] and incubated at 37° C. for the indicated time period. The plates were spun down at 1500 rpm for 5 min at 4° C., and 80 μL of cell culture media was transferred to a clear plate (Corning), incubated with 80 μL of LDH reagent (Roche) for 15 min while shaking, and absorbance measured at 490 nm on a microplate reader (SpectraMax M5 Microplate Reader, Molecular Devices). LDH release assays, as tailored to specific cancer cell types, are exemplified below.
# as §2, with “were” for “are”, “with” for “with structurally-stabilized”, “peptides having the indicated amino acid sequences” for “peptides”, “was” for “is”, “centrifuged” for “centrifuged (e.g., at 1500 rpm)”, “Triton. Data was pooled from 2 technical replicates.” for “Triton.”
# [3] = tested on: U937 cells; assay: LDH release assay of U937 cells; type: cell-based; conditions: 10 and 25 μg/mL, 90 minutes, FIG. 6, FIG. 7
# Procedure: as §1, §3
Molecule,RBC lysis [1],"cancer cell lysis by LDH release, compared with parent Mag(i+4)15 [2]","cancer cell lysis by LDH release, compared with parent Mag(i+4)15 [3]",susceptibility of OCI-AML3 cells to iStOPs (LDH release) [2]
"CCCC[C@H](NC(=O)[C@@H](NC(=O)[C@H](CCC(=O)O)NC(=O)CNC(=O)[C@@H](NC(=O)[C@H](Cc1ccccc1)NC(=O)[C@H](C)NC(=O)[C@H](CCCCN)NC(=O)CNC(=O)[C@H](Cc1ccccc1)NC(=O)[C@H](CCCCN)NC(=O)[C@H](CCCCN)NC(=O)[C@H](C)NC(=O)[C@H](CO)NC(=O)[C@H](Cc1c[nH]cn1)NC(=O)[C@H](CC(C)C)NC(=O)[C@]1(C)CCCC=CCCC[C@](C)(N)C(=O)N[C@@H]([C@@H](C)CC)C(=O)NCC(=O)N[C@@H](CCCCN)C(=O)N1)C(C)C)[C@@H](C)CC)C(=O)N[C@@H](CC(N)=O)C(=O)N[C@@H](CO)C(N)=O [Mag(i+4)0, X1IGKX2LHSAKKFGKAFVGEIBNS] (H-[S5]IGK[S5]LHSAKKFGKAFVGEI[Nle]NS-NH2; staple 1-5)",little to no effect on RBCs,–,–,–
"CCCC[C@H](NC(=O)[C@@H](NC(=O)[C@H](CCC(=O)O)NC(=O)CNC(=O)[C@@H](NC(=O)[C@H](Cc1ccccc1)NC(=O)[C@H](C)NC(=O)[C@H](CCCCN)NC(=O)CNC(=O)[C@H](Cc1ccccc1)NC(=O)[C@H](CCCCN)NC(=O)[C@H](CCCCN)NC(=O)[C@H](C)NC(=O)[C@H](CO)NC(=O)[C@]1(C)CCCC=CCCC[C@](C)(NC(=O)[C@@H](NC(=O)CN)[C@@H](C)CC)C(=O)N[C@@H](CCCCN)C(=O)N[C@@H](Cc2ccccc2)C(=O)N[C@@H](CC(C)C)C(=O)N1)C(C)C)[C@@H](C)CC)C(=O)N[C@@H](CC(N)=O)C(=O)N[C@@H](CO)C(N)=O [Mag(i+4)2, GIX1KFLX2SAKKFGKAFVGEIBNS] (H-GI[S5]KFL[S5]SAKKFGKAFVGEI[Nle]NS-NH2; staple 3-7)",little to no effect on RBCs,–,–,–
GIEKFLHSAKKFGKAX1VGEX2BNS (GIEKFLHSAKKFGKA[S5]VGE[S5][Nle]NS; staple 16-20) [Mag(i+4)15 (G3E)],–,retained potent membrane lysis,retained potent membrane lysis,–
GIGKFLESAKKFGKAX1VGEX2BNS (GIGKFLESAKKFGKA[S5]VGE[S5][Nle]NS; staple 16-20) [Mag(i+4)15 (H7E)],–,retained potent membrane lysis,retained potent membrane lysis,especially potent and selective activity
GIGKFLHEAKKFGKAX1VGEX2BNS (GIGKFLHEAKKFGKA[S5]VGE[S5][Nle]NS; staple 16-20) [Mag(i+4)15 (S8E)],–,retained potent membrane lysis,retained potent membrane lysis,–
GIGKFLHKAKKFGKAX1VGEX2BNS (GIGKFLHKAKKFGKA[S5]VGE[S5][Nle]NS; staple 16-20) [Mag(i+4)15 (S8K)],–,"retain substantial, if not all, oncolytic activity","retain substantial, if not all, oncolytic activity",–
GIGKFLHSAKKFGKAX1VEEX2BNS (GIGKFLHSAKKFGKA[S5]VEE[S5][Nle]NS; staple 16-20) [Mag(i+4)15 (G18E)],–,retained potent membrane lysis,retained potent membrane lysis,especially potent and selective activity
GIGKFLHSAKKFGKAX1VGEX2BES (GIGKFLHSAKKFGKA[S5]VGE[S5][Nle]ES; staple 16-20) [Mag(i+4)15 (N22E)],–,retained potent membrane lysis,retained potent membrane lysis,especially potent and selective activity
GIGKFLHSAKKFGKAX1VGEX2BKS (GIGKFLHSAKKFGKA[S5]VGE[S5][Nle]KS; staple 16-20) [Mag(i+4)15 (N22K)],–,"retain substantial, if not all, oncolytic activity","retain substantial, if not all, oncolytic activity",–
GIGKFLHSAKKFGKAX1VGEX2BNE (GIGKFLHSAKKFGKA[S5]VGE[S5][Nle]NE; staple 16-20) [Mag(i+4)15 (S23E)],–,retained substantial or all cancer cell killing activity,retained substantial or all cancer cell killing activity,especially potent and selective activity
GIGKFLHSAKKFGKAX1VGEX2KNS (GIGKFLHSAKKFGKA[S5]VGE[S5]KNS; staple 16-20) [Mag(i+4)15 (M21K)],–,"retain substantial, if not all, oncolytic activity","retain substantial, if not all, oncolytic activity",–
GIGKFLHSAKKFGKAX1VGKX2BNS (GIGKFLHSAKKFGKA[S5]VGK[S5][Nle]NS; staple 16-20) [Mag(i+4)15 (E19K)],–,"retain substantial, if not all, oncolytic activity","retain substantial, if not all, oncolytic activity",–
GIGKFLHSAKKFGKAX1VKEX2BNS (GIGKFLHSAKKFGKA[S5]VKE[S5][Nle]NS; staple 16-20) [Mag(i+4)15 (G18K)],–,"retain substantial, if not all, oncolytic activity","retain substantial, if not all, oncolytic activity",–
GIGKFLHSAKKFGKEX1VGEX2BNS (GIGKFLHSAKKFGKE[S5]VGE[S5][Nle]NS; staple 16-20) [Mag(i+4)15 (A15E)],–,retained substantial or all cancer cell killing activity,retained substantial or all cancer cell killing activity,especially potent and selective activity
GIGKFLHSAKKFGKKX1VGEX2BNS (GIGKFLHSAKKFGKK[S5]VGE[S5][Nle]NS; staple 16-20) [Mag(i+4)15 (A15K)],–,"retain substantial, if not all, oncolytic activity","retain substantial, if not all, oncolytic activity",–
GIGKFLKSAKKFGKAX1VGEX2BNS (GIGKFLKSAKKFGKA[S5]VGE[S5][Nle]NS; staple 16-20) [Mag(i+4)15 (H7K)],–,"retain substantial, if not all, oncolytic activity","retain substantial, if not all, oncolytic activity",–
GIKKFLHSAKKFGKAX1VGEX2BNS (GIKKFLHSAKKFGKA[S5]VGE[S5][Nle]NS; staple 16-20) [Mag(i+4)15 (G3K)],–,"retain substantial, if not all, oncolytic activity","retain substantial, if not all, oncolytic activity",–
"iStOP 11: integrated StOP of Magainin II combining staples and point mutation(s); sequence only in FIG. 17B ([S5]IGK[S5]LHSKKKFGKA[S5]VGE[S5][Nle]NS; staple 1-5, 16-20)",–,–,–,especially potent and selective activity
